ChEMBL document CHEMBL1201862, “PubChem BioAssay data set” (2004)
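48-hour exposure; five concentrations; linearly interpolated endpoints. GI50: concentration for 50% inhibition of growth.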 The source made the active and inactive calls. Rule as the data show it: active = GI50 up to about 1.1 µM and inactive = higher.

Experiments:
Test in all cases: inhibition of tumour cell growth, NCI panel, 48 h
DLD-1 = system: DLD-1
RXF 631 = system: RXF 631
DMS-273 = system: DMS-273
HOP-18 = system: HOP-18
SNB-78 = system: SNB-78
KM-20L2 = system: KM-20L2
LXFL 529 = system: LXFL 529
XF498 = system: XF498
DMS-114 = system: DMS-114

| Structure (SMILES) | GI50 (DLD-1) | GI50 (RXF 631) | GI50 (DMS-273) | GI50 (HOP-18) | GI50 (SNB-78) | GI50 (KM-20L2) | GI50 (LXFL 529) | GI50 (XF498) | GI50 (DMS-114) |
| --- | --- | --- | --- | --- | --- | --- | --- | --- | --- |
| CCOC(=O)c1cc(-c2ccc(-c3cc(C(=O)OCC)c(C#N)c(N)c3C#N)cc2)c(C#N)c(N)c1C#N | > 100 µM (inactive) | > 100 µM (inactive) | > 100 µM (inactive) | > 100 µM (inactive) | > 100 µM (inactive) | > 100 µM (inactive) | > 100 µM (inactive) | > 100 µM (inactive) | > 100 µM (inactive) |
| CO[C@H](C(=O)O[C@H]1C(=O)N2CCC3CCC1C32C)c1ccccc1 (some centres undefined) | > 100 µM (inactive) |  |  | > 100 µM (inactive) | > 100 µM (inactive) | > 100 µM (inactive) | > 100 µM (inactive) | > 100 µM (inactive) | > 100 µM (inactive) |
| CC(N)CC(=O)O (centres undefined) | > 5000 µM (inactive) |  | > 5000 µM (inactive) | > 5000 µM (inactive) | > 5000 µM (inactive) | > 5000 µM (inactive) | > 5000 µM (inactive) |  | > 5000 µM (inactive) |
| COc1cc2cnc3c4cc(OCc5ccccc5)ccc4ccc3c2cc1OC | 18.4 µM (inactive) | 14.1 µM (inactive) |  | 18.4 µM (inactive) | 19.1 µM (inactive) | 80 µM (inactive) | 18.8 µM (inactive) |  | 11.4 µM (inactive) |
| NC(=S)N/N=C/C(O[C@@H](/C=N/NC(N)=S)CO)n1cnc2c(N)ncnc21 (some centres undefined) |  | > 100 µM (inactive) | > 55.1 µM (inactive) | > 48.8 µM (inactive) | > 100 µM (inactive) | > 61.1 µM (inactive) | > 78.2 µM (inactive) | > 100 µM (inactive) | 28.4 µM (inactive) |
| COC(=O)[C@@H]1c2cc3c(c(O)c2[C@@H](OC2OC(C)C(OC)C(C)(OC)C2OC)C[C@]1(C)O)C(=O)c1c(O)cc2c(c1C3=O)O[C@H]1O[C@]2(C)[C@H](O)[C@@H](N(C)C)[C@@H]1O (some centres undefined) | 0.00146 µM (active) |  | 0.01 µM (active) | 0.00323 µM (active) | 0.00306 µM (active) | 0.00745 µM (active) | 0.000391 µM (active) | 0.00177 µM (active) | 0.00107 µM (active) |
| CC[P+](C)(C)c1ccccc1 | > 100 µM (inactive) |  | > 100 µM (inactive) | 5 µM (inactive) | 58.1 µM (inactive) | > 100 µM (inactive) | > 100 µM (inactive) | > 100 µM (inactive) | > 100 µM (inactive) |
| COc1cc([C@@H]2c3cc4c(cc3[C@@H](NCc3ccccc3)C3COC(=O)[C@@H]32)OCO4)cc(OC)c1O (some centres undefined) | 21.6 µM (inactive) | 3.44 µM (inactive) | 1.68 µM (inactive) |  | 34.9 µM (inactive) | 17.9 µM (inactive) | 19.3 µM (inactive) | 13.2 µM (inactive) | 8.41 µM (inactive) |
| C/C(CC(=O)Nc1ccccc1[N+](=O)[O-])=N\NC(N)=O | > 100 µM (inactive) | > 100 µM (inactive) |  |  | > 100 µM (inactive) | > 100 µM (inactive) | > 100 µM (inactive) | > 100 µM (inactive) | > 100 µM (inactive) |
| OCc1c(-c2cccc3ccccc23)sc(-c2cccc3ccccc23)c1CO |  | 18.2 µM (inactive) | 15.2 µM (inactive) | 13.5 µM (inactive) | 16.2 µM (inactive) | 11.7 µM (inactive) | 14 µM (inactive) | 6.89 µM (inactive) | 9.1 µM (inactive) |
| COc1cc(C2c3cc4c(cc3C(NCC(O)CO)C3COC(=O)[C@H]23)OCO4)cc(OC)c1OC (some centres undefined) | 0.531 µM (active) |  | 0.292 µM (active) | > 100 µM (inactive) | 0.0944 µM (active) | 0.143 µM (active) | 0.163 µM (active) | 0.372 µM (active) | 0.0733 µM (active) |
| CCOc1ccccc1NC(=O)C(=O)CC(=O)C1=C(C)Nc2ccccc2S1 | > 100 µM (inactive) |  | > 100 µM (inactive) |  | > 100 µM (inactive) | > 100 µM (inactive) | > 100 µM (inactive) | > 100 µM (inactive) |  |
| C#CCN(Cc1ccc2nc(-c3ccccc3)c(Cl)nc2c1)c1ccc(Cl)c(Cl)c1 | > 100 µM (inactive) |  | > 100 µM (inactive) | > 100 µM (inactive) | 38.1 µM (inactive) | > 100 µM (inactive) | > 100 µM (inactive) | > 100 µM (inactive) | > 100 µM (inactive) |
| CCOC(=O)c1c2ccc(/C=C/c3ccccn3)ccc-2c(C(=O)OCC)c1N | > 100 µM (inactive) | > 100 µM (inactive) | > 100 µM (inactive) | > 100 µM (inactive) |  | > 100 µM (inactive) | 72.6 µM (inactive) |  | > 100 µM (inactive) |
| O=C(O/N=C1/CCC/C1=C\c1ccccc1)c1ccccc1 | 43.8 µM (inactive) |  | > 100 µM (inactive) | > 100 µM (inactive) | > 100 µM (inactive) | 58.3 µM (inactive) | 28.9 µM (inactive) |  | 35 µM (inactive) |
| CCC12CCCN(Cc3ccccc3)C1c1c(n(C)c3ccccc13)CC2 (centres undefined) | > 253 µM (inactive) |  | 166 µM (inactive) |  |  | 103 µM (inactive) | 167 µM (inactive) |  |  |
| C=C(Br)N(CC)CC | > 100 µM (inactive) | > 100 µM (inactive) | > 100 µM (inactive) | > 100 µM (inactive) | > 100 µM (inactive) | > 100 µM (inactive) | > 100 µM (inactive) |  | > 100 µM (inactive) |
| CC/C=C\C/C=C\C/C=C\CCCCCCCC(=O)OCC(O)CO (centres undefined) | > 100 µM (inactive) |  | > 100 µM (inactive) | 52.2 µM (inactive) | > 58.7 µM (inactive) | > 100 µM (inactive) | > 56.9 µM (inactive) | > 100 µM (inactive) | 44.4 µM (inactive) |
| O=[N+]([O-])c1ccc(Sc2c3ccccc3nc3cc(Cl)ccc23)cc1 | > 10 µM (inactive) | > 10 µM (inactive) |  | > 10 µM (inactive) | > 10 µM (inactive) | > 10 µM (inactive) | > 10 µM (inactive) | 32.7 µM (inactive) | > 10 µM (inactive) |
| NC(=O)c1cn(C2OC(CO)C(O)C2O)c(=O)[nH]c1=O (centres undefined) | > 100 µM (inactive) | > 100 µM (inactive) | > 100 µM (inactive) |  | > 100 µM (inactive) |  | > 100 µM (inactive) |  | > 100 µM (inactive) |
| CC(=O)[O-].[Zn+].c1ccc(/C(=N\Nc2ccccn2)c2ccccn2)cc1 | 0.0231 µM (active) |  | 0.309 µM (active) | 0.247 µM (active) | 2.38 µM (inactive) | 0.01 µM (active) | 0.0429 µM (active) |  | 0.01 µM (active) |
| c1ccc(NC[Si]23OCCN(CCO2)CCO3)cc1 | > 100 µM (inactive) | > 100 µM (inactive) | > 100 µM (inactive) | > 100 µM (inactive) | > 100 µM (inactive) |  | > 100 µM (inactive) |  | > 100 µM (inactive) |
| CN1CCN(Cc2nc3cccc4c3c([n+]2[O-])-c2ccccc2-4)CC1 | 54.5 µM (inactive) | 60.4 µM (inactive) | 44.1 µM (inactive) | 37.2 µM (inactive) | 15.1 µM (inactive) | 36.4 µM (inactive) | 38.3 µM (inactive) |  | 44.4 µM (inactive) |
| CC(C)OC(=O)C1=C(O)c2ccccc2S(=O)(=O)N1 | > 100 µM (inactive) | > 100 µM (inactive) | > 100 µM (inactive) | > 100 µM (inactive) | > 100 µM (inactive) | > 100 µM (inactive) | > 100 µM (inactive) | > 100 µM (inactive) |  |
| CC(=O)N1C/C(=C\c2ccccc2)C(=O)/C(=C/c2ccccc2)C1 | 8.71 µM (inactive) |  | 4.85 µM (inactive) | 18.8 µM (inactive) | 17.2 µM (inactive) | 15.6 µM (inactive) | 9.4 µM (inactive) | 23.8 µM (inactive) |  |
| CN(C)C(=S)N=C(Nc1ccccc1)Nc1ccccc1 |  |  | > 100 µM (inactive) |  | > 100 µM (inactive) | > 100 µM (inactive) |  |  | > 100 µM (inactive) |
| Cc1c2cc[n+](C)cc2c(C)c2c1[nH]c1ccc(Cl)cc12 | 1.05 µM (active) |  | 1.76 µM (inactive) | 3.78 µM (inactive) | 0.288 µM (active) | 2.58 µM (inactive) | 0.286 µM (active) |  | 0.341 µM (active) |
| CC(=O)Oc1c2c(c(OC(C)=O)c3c1n(C(C)=O)c1ccccc1n3C(C)=O)n(C(C)=O)c1ccccc1n2C(C)=O | 3.04 µM (inactive) |  | 3.24 µM (inactive) |  |  |  | 2.74 µM (inactive) |  | 2.59 µM (inactive) |
| COc1ccc(C(=O)O)c(Cc2cccc3ccccc23)c1 | > 100 µM (inactive) | > 100 µM (inactive) | > 100 µM (inactive) | > 100 µM (inactive) |  | > 100 µM (inactive) | > 100 µM (inactive) |  | > 100 µM (inactive) |
| CC(C)(Oc1ccc2c(=O)cc(-c3ccc(Cl)cc3)oc2c1)C(=O)Nc1c(Cl)cccc1Cl | > 100 µM (inactive) |  | > 100 µM (inactive) | > 100 µM (inactive) | > 100 µM (inactive) | > 100 µM (inactive) | > 100 µM (inactive) | > 100 µM (inactive) | > 100 µM (inactive) |
